Experimental data taken from paper PMC5790467, “Enhanced anti-tumor efficacy and mechanisms associated with docetaxel-piperine combination- in vitro and in vivo investigation using a taxane-resistant prostate cancer model” (Oncotarget, 2017).
Read-outs that look alike come from different tables or passages of the source.

Assays:
[1] = ketoconazole 200 mg once daily for three days; cancer patients; cited from earlier work
PC3 tumor xenografts = test: Tumor growth in mice with PC3 tumor xenografts; format: in vivo, ICR-NOD/SCID mice; conditions: DTX 20 mg/kg once a week i.v., n = 3
Method: (§1) The following experimental protocol was adopted after approval by the Animal Research Ethics Committee at the Chinese University of Hong Kong. PC3 and PC3-TxR cells were cultured in RPMI 1640 medium containing 10% FBS and 1% penicillin-streptomycin in a humidified atmosphere of 5% CO2 at 37°C. PC3 and PC3-TxR cell pellets were re-suspended in serum free RPMI1640 and diluted by Matrigel™ Basement Membrane Matrix (BD Biosciences, Bedford, MA, USA) to the density of 3.33 × 10^6cells/ml. Male ICR-NOD/SCID mice (Laboratory Animal Services Center at the Chinese University of Hong Kong) weighing 25 to 30 g (age 6–8 weeks) was anesthetized with an intraperitoneal injection of a cocktail containing 87 mg/kg ketamine and 8.7 mg/kg xylazine (diluted with saline and the injection volume was about 0.1 ml). The cell suspension was injected subcutaneously to both the left and right flank region. The tumors were allowed to grow for about 2 weeks. Tumor volumes were measured twice per week (tumor volume = [(W^2 × L)/2], where W is the tumor measurement at the widest point, and L is the tumor dimension at the longest point). When the tumors reach about 100 mm^3, treatment was started and the date was designated as Day 0.

PC3-TxR tumor xenografts = test: Tumor growth in mice with PC3-TxR (taxane-resistant) tumor xenografts; format: in vivo, ICR-NOD/SCID mice; conditions: DTX 20 mg/kg once a week i.v.
Method: as §1

[2] = Body weight and tolerability in mice with TxR tumor xenografts; conditions: TxR tumor xenograft mice; two weeks of treatment; control 96%
Method: For oral administration of PIP, in 1 ml of PIP dosing solution, 100 µl of its stock solution was solubilized with 500 µl of PEG 400 and 400 µl of physiological saline and the mixture was administrated orally to mice at the dose of 0.1 ml/10 g body weight. […] On Day 0, mice with PC3 cell xenografts were divided into two groups and mice with PC3-TxR cell xenografts were divided into four groups. Mice in each group were treated according to Supplementary Table 3 and the drug dosing lasted for 2 weeks with body weight and tumor sized measured twice per week. […] At the end of experiment, the mice were anesthetized followed by haemospasia to death by cardiac puncture.

[3] = DTX concentration in plasma and tissues of TxR tumor bearing mice (LC/MS/MS); format: in vivo, ICR-NOD/SCID mice; conditions: for concentration at 2 h: ICR-NOD/SCID, mouse, iv, 20 mg/kg
Method: On Day 14, mice were sacrificed two hours post drug administration. Blood samples were collected by cardiac puncture followed by centrifugation at 5000 rpm for 3 min for obtaining the plasma. Brain, lung, liver, kidney and tumor were collected and weighed. About 100 mg of each tissue samples were carefully weighed and homogenized after being spiked with 300 µl of formic acid (0.2%, v/v). About 50 µl of plasma or tissue homogenates were spiked with 5 µl of 50% acetonitrile in water and 150 µl of mixture of acetonitrile and methanol (50:50, v/v) containing glibenclamide at 50 ng/ml as internal standard. After centrifugation at 13000 rpm for 10 min, the supernatants were injected into LC/MS/MS system which consisted of an Agilent 6430 triple quadrupole mass spectrometer equipped with an electrospray ionization source (ESI), two Agilent 1290 series pumps and autosampler (Agilent Technologies, Inc., CA, USA). The analytes were separated using a Waters Nova-Pak^ÒC18 column (150 mm×3.9 mm, i.d., 4 µm particle size) protected by a collared frit (4/4.6 mm i.d., 0.5 µm pore size, Thermo Scientific full name, city, state, country). The mobile phase consisted of 0.2% formic acid and acetonitrile (50:50, v/v) with a flow rate at 0.4 ml/min.

PC3-TxR cells = test: Cell viability (cytotoxicity) of PC3-TxR cells; format: cell-based; conditions: Homo sapiens
Text: www.impactjournals.com/oncotarget/ Oncotarget, Supplementary Materials 2017
investigation using a taxane-resistant prostate cancer model
Supplementary Figure 1: Cell viability (measured from triplicate samples) of PC3-TxR cells. (A) The cytotoxicity of PIP
(1 picture or pasted object on this page, not shown here)

P-gp = P-gp (Homo sapiens, UniProt P08183); test: Uptake of DTX in MDCK/MDR1 cells with or without PIP pre-incubation; format: cell-based; design: expressed in transfected cells; host or cells: MDCK (MDCK/MDR1), gift from Prof; P. Borst
Sequence of P-gp (P08183 whole entry): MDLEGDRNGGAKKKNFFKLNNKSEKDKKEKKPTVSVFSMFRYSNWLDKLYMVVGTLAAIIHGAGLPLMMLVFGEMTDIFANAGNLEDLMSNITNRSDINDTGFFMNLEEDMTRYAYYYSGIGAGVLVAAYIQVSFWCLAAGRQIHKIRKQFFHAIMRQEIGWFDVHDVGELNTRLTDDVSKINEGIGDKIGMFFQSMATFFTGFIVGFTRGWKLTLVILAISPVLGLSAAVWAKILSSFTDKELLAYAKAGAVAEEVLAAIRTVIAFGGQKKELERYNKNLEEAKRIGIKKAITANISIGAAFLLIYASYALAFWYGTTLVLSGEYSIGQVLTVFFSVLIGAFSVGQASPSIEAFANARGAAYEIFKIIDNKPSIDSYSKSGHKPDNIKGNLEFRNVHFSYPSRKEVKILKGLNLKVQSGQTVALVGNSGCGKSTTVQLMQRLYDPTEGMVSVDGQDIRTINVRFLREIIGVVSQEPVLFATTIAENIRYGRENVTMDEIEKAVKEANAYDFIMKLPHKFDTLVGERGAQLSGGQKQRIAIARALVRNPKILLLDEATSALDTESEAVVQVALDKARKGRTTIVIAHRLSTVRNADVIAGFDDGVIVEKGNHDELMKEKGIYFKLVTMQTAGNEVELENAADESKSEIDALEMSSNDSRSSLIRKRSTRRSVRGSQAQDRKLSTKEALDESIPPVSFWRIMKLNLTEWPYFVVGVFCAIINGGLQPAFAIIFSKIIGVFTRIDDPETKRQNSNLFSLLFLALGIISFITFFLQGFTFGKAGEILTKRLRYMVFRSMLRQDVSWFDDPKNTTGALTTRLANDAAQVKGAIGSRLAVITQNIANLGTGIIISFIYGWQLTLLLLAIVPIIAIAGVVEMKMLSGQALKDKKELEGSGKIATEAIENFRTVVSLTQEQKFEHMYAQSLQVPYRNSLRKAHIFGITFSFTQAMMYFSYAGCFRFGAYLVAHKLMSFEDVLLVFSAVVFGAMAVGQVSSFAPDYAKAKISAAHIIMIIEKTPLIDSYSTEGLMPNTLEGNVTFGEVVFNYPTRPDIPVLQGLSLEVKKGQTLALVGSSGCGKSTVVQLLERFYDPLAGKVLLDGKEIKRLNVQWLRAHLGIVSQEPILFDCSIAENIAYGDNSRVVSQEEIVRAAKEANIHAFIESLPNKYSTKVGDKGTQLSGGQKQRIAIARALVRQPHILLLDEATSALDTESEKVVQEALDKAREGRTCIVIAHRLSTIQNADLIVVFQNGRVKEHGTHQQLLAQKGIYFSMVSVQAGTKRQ
Method: MDCK cells transfected with human gene (MDCK/MDR1) were cultured in Dulbecco’s modified Eagle’s medium supplemented with 10% FBS and 1% penicillin-streptomycin. Cells were subcultured when the confluence reached 80% by trypsinization with 0.25% of trypsin-EDTA. MDCK/MDR1 cells were seeded at a density of 2 × 10^5 cells/well to 24-well and incubated for 24 h. […] After washing twice with ice-cold HBSS, cells were collected in 100 µl of formic acid (0.2%, v/v) using a scraper. BCA Protein Quantification Kit (Abcamplc., Cambridge, UK) was used to quantify the protein content. Cell lysate was treated by 300 µl of mixture of acetonitrile and methanol (50:50, v/v) containing glibenclamide at 50 ng/ml, followed by sonication for 15 min.

[4] = Day 14, two hours after i.v. bolus DTX, TxR mice

CC(=O)N1CCN(c2ccc(OCC3COC(Cn4ccnc4)(c4ccc(Cl)cc4Cl)O3)cc2)CC1 (stereo not shown) [Ketoconazole]
reduction of the clearance of DTX [1]: 49%

CC(=O)O[C@@]12CO[C@@H]1C[C@H](O)[C@@]1(C)C(=O)[C@H](O)C3=C(C)[C@@H](OC(=O)[C@H](O)[C@@H](NC(=O)OC(C)(C)C)c4ccccc4)C[C@@](O)([C@@H](OC(=O)c4ccccc4)[C@H]21)C3(C)C [DTX, Docetaxel]
percentage of tumor size increase (PC3 tumor xenografts): 55% | percentage of tumor size increase (PC3-TxR tumor xenografts; TxR tumor xenografts, two weeks after drug administration, PIP 50 mg/kg daily p.o.): 217% | inhibitory effect on the tumor growth in TxR tumor xenografts (PC3-TxR tumor xenografts; model verification experiment, n = 3): no inhibitory effect | percentage of bodyweights [2]: 79% | DTX plasma concentration [3, 4]: 703.847 ± 311.129 ng/mL | DTX tissue concentration, Brain [3, 4]: 0.022 ± 0.009 ng/mg | DTX tissue concentration, Kidney [3, 4]: 2.322 ± 1.447 ng/mg | DTX tissue concentration, Liver [3, 4]: 1.080 ± 0.763 ng/mg | DTX tissue concentration, Tumor [3, 4]: 1.312 ± 0.754 ng/mg | concentration at 2 h ([3]; brain): 22 ng/g | concentration at 2 h ([3]; kidney): 2320 ng/g | concentration at 2 h ([3]; liver): 1080 ng/g | concentration at 2 h ([3]; lung): 5160 ± 2890 ng/g | concentration at 2 h ([3]; plasma): 704 ng/mL | concentration at 2 h ([3]; tumor): 1310 ng/g | IC50 (PC3-TxR cells; read-out: IC50 of DTX on PC3-TxR, DTX + 5 μg/ml PIP): 17.6 nM | IC50 (PC3-TxR cells; read-out: IC50 of DTX on PC3-TxR, DTX + 10 μg/ml PIP): 10.4 nM | IC50 (PC3-TxR cells; read-out: IC50 of DTX on PC3-TxR, DTX + 25 μg/ml PIP): 5.5 nM | IC50 (PC3-TxR cells; read-out: IC50 of DTX on PC3-TxR, DTX alone): 41.4 nM | cell uptake of DTX (P-gp; DTX 1 μM, absence of PIP): 0.35 ± 0.05 nmol/min/mg protein | cell uptake of DTX (P-gp; DTX 5 μM, absence of PIP): 2.44 ± 0.14 nmol/min/mg protein | cell uptake of DTX (P-gp; DTX 5 μM, after pre-incubation with PIP): 3.57 ± 0.75 nmol/min/mg protein | cell uptake of DTX (P-gp; DTX 10 μM, absence of PIP): 3.30 ± 0.38 nmol/min/mg protein | cell uptake of DTX (P-gp; DTX 10 μM, after pre-incubation with PIP): 5.20 ± 0.53 nmol/min/mg protein
